Values of other authors as cited in US20160193276A1 (Teva Pharmaceutical Industries, Ltd., priority 2012, published 2016).

Experiments:
MS patients = details: 20 mg/day subcutaneous (s.c.)
rats = details: orally administered
mice = details: orally administered
[1] = test system: patients with relapsing multiple sclerosis; details: administered orally

Substance: L-glutamic acid polymer with L-alanine, L-lysine, L-tyrosine, acetate (salt) [glatiramer acetate]
- Total number of enhancing lesions as measured by MRI (MS patients): reduce
- Induction of EAE (rats): inhibited
- Induction of EAE (mice): inhibited
- Relapse rate or other clinical MRI parameters of disease activity [1]: did not affect
